According to patent US20250388602A1 (Genase Therapeutics B.V., priority 2022, published 2025):

How the values were obtained:
recombinant human DHODH = recombinant human DHODH (Homo sapiens (Human), UniProt Q02127); test: DHODH enzyme assay (Assay A), DCIP absorbance; assay type: biochemical; details: bins ≥10 nM-<100 nM and <10 nM; read-out: IC50 DHODH inhibition activity
ZIKV = test: anti-ZIKV CPE reduction assay in A549 cells (MTS); assay type: cell-based, ZIKV MR766 prototype strain
Procedure: (§1) The lung cancer epithelial cell line A549 was obtained from the American Type Culture Collection (ATCC; Rockville, MD, USA) and cultured in MEM medium (Gibco BRL, Gaithersburg, MD, USA) with 10% fetal calf serum (FCS; Gibco BRL), 2 mM L-glutamine (Gibco BRL) and 0.075% sodium bicarbonate (Gibco BRL).
(§2) The ZIKV MR766 prototype strain and the DENV-2 laboratory-adapted New Guinea C strain were obtained from ATCC and stocks were grown in the C6/36 mosquito cell line (ATCC). Viral stock titers were determined using plaque assay in BHK-21 cells (ATCC).
(§3) The anti-ZIKV and anti-DENV-2 activity in A549 cells was determined using a tetrazolium-based colorimetric cytopathic effect (CPE) reduction assay. This assay has been described in detail before (Virology. 2021; doi.org/10.1016/j.virol.2021.07.003). […] Three hours after MTS incubation, virus was inactivated using 0.5% Triton X-100 (Thermo Fisher Scientific, Waltham, MA, USA) and the absorbance was then recorded at 490 nm with a 96-well plate reader and compared with four cell control replicates (cells without virus and drugs) and four virus control wells (cells with virus but without drug). […] Absorbance was recorded using the VersaMax ELISA™ microplate reader (Molecular Devices) and analyzed with the Softmax Pro® software (Molecular Devices, Version 4.0). […]

DENV-2 = test: anti-DENV-2 CPE reduction assay in A549 cells (MTS); assay type: cell-based, DENV-2 laboratory-adapted New Guinea C strain
Procedure: as §1, §2, §3

Sequence of recombinant human DHODH (Q02127 whole entry): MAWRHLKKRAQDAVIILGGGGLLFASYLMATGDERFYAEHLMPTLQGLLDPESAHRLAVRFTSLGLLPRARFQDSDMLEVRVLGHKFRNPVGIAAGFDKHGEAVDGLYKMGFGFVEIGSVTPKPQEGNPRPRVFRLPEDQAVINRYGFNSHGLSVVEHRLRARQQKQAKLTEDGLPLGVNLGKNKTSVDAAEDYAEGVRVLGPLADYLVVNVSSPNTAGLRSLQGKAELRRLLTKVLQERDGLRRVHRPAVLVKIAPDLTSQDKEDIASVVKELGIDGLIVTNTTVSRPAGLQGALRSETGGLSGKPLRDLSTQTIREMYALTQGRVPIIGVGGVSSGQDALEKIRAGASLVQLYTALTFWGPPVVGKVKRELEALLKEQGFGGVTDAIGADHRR

SMILES: COc1ccc(F)c(-n2ncc3c2COC[C@H]3NC(=O)c2ncn3c2CCCC3)c1Cl (single isomer, unassigned) [Ex-9]
- IC50 (recombinant human DHODH): < 10 nM
- antiviral activity against ZIKV (ZIKV): demonstrating antiviral activity
- IC50 (ZIKV; Zika virus, 72 h, MOI 1, 3 d of infection): 9.3 ± 2 nM
- antiviral activity against DENV-2 (DENV-2; A549 cells): demonstrating antiviral activity
- IC50 (DENV-2; Dengue virus, DENV2, A549, 96 h, read-out: IC50 DENV-2 MTS): 1.6 ± 1 nM
- hHEPs % remaining (in vitro; % remaining at 120 min, 1 μM): 87%
- half-life at 1 μM (in vitro; human, hepatocytes): > 10 h
